The target of one assay is Acetyl-CoA carboxylase 2 (Homo sapiens, UniProt O00763). In words: In Vitro Assay of Acetyl-CoA Carboxylase (ACC) Inhibition. As for the experimental part:
(§1) An exemplary procedure for the in vitro ACC inhibition assay, which can be used to determine the inhibitory action of the compounds of the invention toward either ACC1 or ACC2, is as follows. The ADP-Glo™ kinase assay kit from Promega was used. The ADP-Glo™ kinase assay is a luminescent ADP detection assay to measure enzymatic activity by quantifying the amount of ADP produced during an enzyme reaction. The assay was performed in two steps; first, after the enzyme reaction, an equal volume of ADP-Glo™ reagent was added to terminate the reaction and deplete the remaining ATP. Then, the kinase detection reagent was added to simultaneously convert ADP to ATP and allow the newly synthesized ATP to be measured using a luciferase/luciferin reaction. Luminescence can be correlated to ADP concentrations by using an ATP-to-ADP conversion curve. The detailed procedure was as follows. 4.5 μL of a working solution was added to a 384-well plate. […] A final ACC reaction solution consisted of: 0.5 nM ACC, 10 μM ATP, 5 μM acetyl-CoA, and 15 mM NaHCO3; and the final concentrations of the compound were measured as follows: 1 μM, 0.333 μM, 0.111 μM, 0.037 μM, 0.0123 μM, 0.00411 μM, 0.00137 μM, 0.000457 μM, 0.000152 μM, and 0.000051 μM. […] The plates were incubated at room temperature for 40 minutes, then read on a Perkin Elmer EnVision 2104 plate reader for luminescence in relative light unit (RLU).

A further assay has as its target Acetyl-CoA carboxylase 1 (Homo sapiens, UniProt Q13085). The description is as above. As for the experimental part: as §1

For orientation: IC50 means the concentration that inhibits the measured activity by half. Read a low IC50 as inhibition by little substance.

Sequence of Acetyl-CoA carboxylase 2 (O00763 whole entry): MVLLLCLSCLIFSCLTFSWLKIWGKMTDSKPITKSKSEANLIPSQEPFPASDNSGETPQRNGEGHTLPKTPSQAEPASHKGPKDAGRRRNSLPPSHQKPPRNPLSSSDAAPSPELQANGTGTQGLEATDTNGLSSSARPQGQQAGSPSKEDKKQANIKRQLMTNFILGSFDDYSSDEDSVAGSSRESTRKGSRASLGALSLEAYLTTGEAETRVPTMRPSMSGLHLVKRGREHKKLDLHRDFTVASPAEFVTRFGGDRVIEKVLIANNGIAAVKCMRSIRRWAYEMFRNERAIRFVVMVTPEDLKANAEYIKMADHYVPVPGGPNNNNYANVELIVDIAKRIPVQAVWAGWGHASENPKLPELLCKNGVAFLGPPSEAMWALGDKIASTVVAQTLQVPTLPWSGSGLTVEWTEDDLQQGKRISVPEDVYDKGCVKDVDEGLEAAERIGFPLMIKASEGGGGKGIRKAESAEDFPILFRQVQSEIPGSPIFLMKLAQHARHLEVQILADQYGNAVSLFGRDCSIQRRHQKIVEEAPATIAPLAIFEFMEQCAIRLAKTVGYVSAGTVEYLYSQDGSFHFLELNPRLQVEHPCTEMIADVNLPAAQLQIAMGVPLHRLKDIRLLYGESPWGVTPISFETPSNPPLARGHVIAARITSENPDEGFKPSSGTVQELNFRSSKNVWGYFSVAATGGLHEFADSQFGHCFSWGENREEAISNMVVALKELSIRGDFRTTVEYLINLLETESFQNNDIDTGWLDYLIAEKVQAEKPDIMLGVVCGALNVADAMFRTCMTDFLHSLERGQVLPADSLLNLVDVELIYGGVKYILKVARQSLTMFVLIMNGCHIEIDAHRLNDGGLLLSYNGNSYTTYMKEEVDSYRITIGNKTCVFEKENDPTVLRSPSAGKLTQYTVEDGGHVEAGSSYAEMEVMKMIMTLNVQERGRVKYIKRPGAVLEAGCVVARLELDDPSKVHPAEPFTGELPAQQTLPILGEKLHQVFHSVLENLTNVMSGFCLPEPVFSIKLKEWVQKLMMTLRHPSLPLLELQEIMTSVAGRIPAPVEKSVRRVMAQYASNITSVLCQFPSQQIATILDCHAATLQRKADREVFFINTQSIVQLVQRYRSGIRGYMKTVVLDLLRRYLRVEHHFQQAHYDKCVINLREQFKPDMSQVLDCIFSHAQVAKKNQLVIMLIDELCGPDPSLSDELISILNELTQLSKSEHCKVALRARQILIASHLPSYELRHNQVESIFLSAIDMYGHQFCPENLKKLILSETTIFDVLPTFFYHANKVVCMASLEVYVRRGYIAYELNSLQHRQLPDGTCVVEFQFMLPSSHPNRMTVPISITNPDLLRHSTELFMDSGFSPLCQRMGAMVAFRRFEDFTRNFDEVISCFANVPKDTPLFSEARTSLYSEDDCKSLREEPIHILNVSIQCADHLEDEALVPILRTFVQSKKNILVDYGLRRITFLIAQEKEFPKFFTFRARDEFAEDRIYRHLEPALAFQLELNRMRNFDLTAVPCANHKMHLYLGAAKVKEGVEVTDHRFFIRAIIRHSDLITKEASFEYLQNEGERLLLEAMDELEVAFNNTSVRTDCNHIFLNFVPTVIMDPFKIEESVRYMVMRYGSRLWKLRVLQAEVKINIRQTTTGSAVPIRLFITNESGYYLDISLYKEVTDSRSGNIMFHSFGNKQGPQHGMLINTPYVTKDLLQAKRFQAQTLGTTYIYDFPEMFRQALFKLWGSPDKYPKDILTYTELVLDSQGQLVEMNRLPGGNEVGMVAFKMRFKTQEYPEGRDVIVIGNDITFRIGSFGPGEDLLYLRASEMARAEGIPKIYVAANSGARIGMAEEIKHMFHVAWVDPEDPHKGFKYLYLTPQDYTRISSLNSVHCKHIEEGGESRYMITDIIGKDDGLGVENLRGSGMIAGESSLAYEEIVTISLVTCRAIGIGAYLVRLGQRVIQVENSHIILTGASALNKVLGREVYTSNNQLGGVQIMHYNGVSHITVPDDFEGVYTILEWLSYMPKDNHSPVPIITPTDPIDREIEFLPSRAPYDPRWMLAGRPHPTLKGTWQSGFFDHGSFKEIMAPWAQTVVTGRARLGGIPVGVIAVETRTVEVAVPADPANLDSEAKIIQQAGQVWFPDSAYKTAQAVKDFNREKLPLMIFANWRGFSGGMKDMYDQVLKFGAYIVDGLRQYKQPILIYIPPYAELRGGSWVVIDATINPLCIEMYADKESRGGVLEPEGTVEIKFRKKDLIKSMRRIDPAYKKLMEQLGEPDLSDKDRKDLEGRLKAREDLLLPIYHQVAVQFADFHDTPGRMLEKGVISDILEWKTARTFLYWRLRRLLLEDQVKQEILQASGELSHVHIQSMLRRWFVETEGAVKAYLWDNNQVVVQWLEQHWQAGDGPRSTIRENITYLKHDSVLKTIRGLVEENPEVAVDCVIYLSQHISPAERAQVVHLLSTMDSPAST

For `COc1ccccc1[C@H](Cn1c(=O)n(CC2CC(C(=O)O)C2)c(=O)c2c(C)c(-c3ncco3)sc21)OC1CCOCC1` (some centres not stated) [US12384798, Compound c-1], the values for the 50% inhibitory concentration (IC50) against Acetyl-CoA carboxylase 2 and at Acetyl-CoA carboxylase 1 were 10 nM and 0.487 nM, respectively.

Source of the values: BindingDB's records for patent US12384798 (Nanjing Ruijie Pharma Co., 2025).
